Tests used:
IL-1 = experiment: Example 6: IL-1 production by peritoneal macrophages in response to LPS; type: in vivo, BALB/c mice; conditions: 2 injections 12 hours apart; macrophages stimulated with LPS 25 μg/ml 24 hours; thymocyte co-stimulation bioassay; FIG. 4
Method: Mice (BALB/c, female) 13-14 g, 5 animals in each group, received 2 injections of MDPs, 12 hours apart. The MDPs tested were MDP, muroctasin, MDP-Thr, MDP-OBu, GMDP-LL, GMDP-Lys(St) and GMDP-A. After the last injection, peritoneal cells were collected and the induction of IL-1 secretion by peritoneal macrophages was tested.
Macrophages were collected from the peritoneal cavity of mice by lavage with Hank's balanced salt solution. After washing the cells, they were then placed in wells of flat-bottomed 96-well plates and incubated at 37° C. for 1 hour in RPMI containing 5% FCS. The plates were then washed with warm RPMI to remove non-adhering cells. LPS (25 μg/ml) was then added in fresh culture medium and the plates were further cultured for 24 hours.
Production of IL-1 by peritoneal macrophages was assayed by thymocyte co-stimulation bioassay. Thymocytes from (CBA*C57BL.6)F1 mice (106), PHA (1 μg.ml), and the tested supernatant (50 μl) were placed into the wells of flat-bottomed 96-well plates. Thymocyte proliferation rate was measured 72 hours later by the incorporation of 3H TdR (1 μCi.well) during 6 hours prior to culture termination.

TNFα = experiment: Example 8: TNF induction by muramyl peptides; type: in vivo, BALB/c mice; conditions: C. parvum-primed mice, 100 μg (equimolar) IP, LPS 25 μg 18 hours later; FIG. 6
Method: Here, the muramyl peptides tested were prototype MDP, GMDP, GMDP-A, GMDP-OBu, GMDP-Lys(St), GMDPA-Lys(St), GMDP-Benz and Thr-MDP.
(§1) BALB/mice (6 mice/groups) were injected intraperitoneally with 1.4 mg of dead C. parvum (0.2 ml of a 7 mg/ml suspension). Mice were subsequently (2 weeks later) treated with saline, MDP (100 μg) or analogue (100 μg) in 0.5 ml saline IP. The dose of each `MDP` was adjusted so that animals received equimolar amounts. LOS (25 μg) was injected 18 hours after the injection of MDP/analogue and the mice were subsequently sacrificed and bled out. TNF was determined by standard capture ELISA assay.

Pyrogenicity = conditions: in vivo
Method: The expression "non pyrogenic or of low pyrogenicity" refers to a compound which induces an increase in temperature of an adult human of less than half a degree following the administration of 1 to 2 mg of the compound.
First, muramyl peptide compounds useful in the invention may be non-pyrogenic. Pyrogenicity may be simply measured by methods well known in the art.

[1] = tested on: LPS-induced mortality in mice; experiment: Example 3: LPS-induced mortality in mice; type: in vivo, BALB/c mice; conditions: i.p. twice daily 100 μg or molar equivalent per mouse for 9 days before 300 μg LPS; mortality 2 days after LPS; FIG. 1
Method: 25 female BALB/c mice weighing 16-18 g each were divided into 5 groups, each group containing 5 animals. Each group of mice received twice-daily doses of saline, GMDP, GMDP-OBu, MDP or GMDP-A. The compounds were administered by intra-peritoneal injection in twice-daily doses of 100 μg or the molar equivalent per mouse during a 9-day period before the injection of 300 μg LPS per mouse. […] Thus GMDP and GMDP-A would be useful in the treatment and prevention of sepsis and septic shock, whereas MDP and GMDP-OBu would not.

serum TNF = experiment: Example 7: LPS induction of serum TNF; type: in vivo, BALB/c mice; conditions: C. parvum-primed mice, 100 μg (equimolar) IP, LPS 25 μg 18 hours later; FIG. 5
Method: as §1, with “In this experiment, 4 compounds were tested and these are: MDP, GMDP-A, GMDP-OBu and GMDP. Saline was administered to control mice. BALB/c mice” for “BALB/mice”, “mice/group)” for “mice/groups)”, “suspension.).” for “suspension).”, “LPS” for “LOS”, “and” for “and the”

Compound	suppression of IL-1 production (IL-1)	effect on LPS-induced TNFα production (TNFα)	pyrogenicity (Pyrogenicity)	effect on LPS-induced mortality [1]	effect on LPS induction of serum TNF (serum TNF)
CCCCOC(=O)[C@@H](CCC(N)=O)NC(=O)[C@H](C)NC(=O)[C@@H](C)O[C@H]1[C@H](O)[C@@H](CO)OC(O)[C@@H]1NC(C)=O (stereo partly drawn) [MDP-OBu, N-acetylmuramyl-L-alanyl-D-glutamine-α-N-butyl ester, reference compound]	suppress the IL-1 response to LPS				
N*-[N-Acetyl-D-glucosaminyl-(β1-4)-N-acetyl-muramyl-L-alanyl-γ-D-glutamyl]-N*-stearoyl-L-lysine [GMDPA-Lys(St)]		enhance LPS-induced TNF production			
N*-[N-acetyl-D-glucosaminyl-(β1-4)-N-acetylmuramyl-L-alanyl-D-isoglutaminyl]-N*-stearoyl-L-lysine [GMDP-Lys(St)]	suppress the IL-1 response to LPS	enhance LPS-induced TNF production			
N-acetyl-D-glucosaminyl-(β1-4)-N acetylmuramyl-L-alanyl-D-glutamine n-butyl ester [GMDP-OBu]		consistently failed to synergise with LPS			
N-acetyl-D-glucosaminyl-(β1-4)-N-acetylmuramyl-L-alanyl-D-glutamicacid [GMDP-A]	suppress the IL-1 response to LPS		even less pyrogenic analogue	antagonise the effect of LPS	pro-inflammatory, causing an enhancement of the TNF levels induced by LPS
